Experimental data from ChEMBL document CHEMBL5352439, “Design, synthesis, biological evaluation and molecular docking study of novel urea-based benzamide derivatives as potent poly(ADP-ribose) polymerase-1 (PARP-1) inhibitors” (Eur J Med Chem, 2022).

Columns and labels:
HCT-116 [1] = test: Induction of apoptosis in human HCT-116 cells assessed as viable cells at 5 uM incubated for 48 hrs by Annexin-V and PI staining based flow cytometry analysis (reference value: 98.50%); type: functional; conditions: read-out: Activity
HeLa [2] = test: Antiproliferative activity against human HeLa cells assessed as inhibition of cell growth at 20 uM incubated for 48 hrs by MTT assay; type: functional
HCT-116 [3] = test: Inhibition of colony formation in human HCT-116 cells at 7.5 uM measured every 3 days for 14 days by crystal violet staining based assay; type: functional; conditions: HCT-116, 336 h, time 14 day
HCT-116 [4] = test: Inhibition of cell migration in human HCT-116 cells at 10 uM incubated for 48 hrs by wound healing assay (reference value: 42.8 %); type: functional
HCT-116 [5] = test: Inhibition of colony formation in human HCT-116 cells measured every 3 days for 14 days by crystal violet staining based assay; type: functional, cell-based; conditions: dose 1.88-15 µM, time 14.0 day
HCT-116 [6] = test: Induction of apoptosis in human HCT-116 cells assessed as late apoptotic cells at 20 uM incubated for 48 hrs by Annexin-V and PI staining based flow cytometry analysis (reference value: 0.06%); type: functional
HCT-116 [7] = test: Induction of apoptosis in human HCT-116 cells assessed as viable cells at 10 uM incubated for 48 hrs by Annexin-V and PI staining based flow cytometry analysis (reference value: 98.50%); type: functional; conditions: read-out: Activity
HCT-116 [8] = test: Antiproliferative activity against human HCT-116 cells assessed as inhibition of cell growth at 20 uM incubated for 48 hrs by MTT assay; type: functional
L02 = test: Antiproliferative activity against human L02 cells assessed as inhibition of cell growth […] incubated for 48 hrs by MTT assay; type: functional, cell-based; conditions: L02, 48 h
HCT-116 [9] = test: Induction of apoptosis in human HCT-116 cells assessed as necrotic cells at 5 uM incubated for 48 hrs by Annexin-V and PI staining based flow cytometry analysis (reference value: 0.08%); type: functional
HCT-116 [10] = test: Induction of cell cycle arrest in human HCT-116 cells assessed as accumulation of cells at G2/M phase at 10 to 40 uM incubated for 48 hrs by propidium iodide staining based flow cytometry analysis (reference value: 27.38 %); type: functional; conditions: dose 10-40 µM
HCT-116 [11] = test: Inhibition of cell migration in human HCT-116 cells at 20 uM incubated for 48 hrs by wound healing assay (reference value: 42.8 %); type: functional
HCT-116 [12] = test: Inhibition of colony formation in human HCT-116 cells at 10 uM measured every 3 days for 14 days by crystal violet staining based assay; type: functional; conditions: HCT-116, 336 h, time 14 day
MDA-MB-231 [13] = test: Antiproliferative activity against human MDA-MB-231 cells assessed as inhibition of cell growth at 20 uM incubated for 48 hrs by MTT assay; type: functional
HCT-116 [14] = test: Induction of apoptosis in human HCT-116 cells assessed as early apoptotic cells at 10 uM incubated for 48 hrs by Annexin-V and PI staining based flow cytometry analysis (reference value: 1.26%); type: functional
MDA-MB-231 [15] = test: Antiproliferative activity against human MDA-MB-231 cells assessed as inhibition of cell growth incubated for 48 hrs by MTT assay; type: functional, cell-based; conditions: MDA-MB-231, 48 h
HCT-116 [16] = test: Induction of cell cycle arrest in human HCT-116 cells assessed as decrease in cells at G0/G1 phase at 10 to 40 uM incubated for 48 hrs by propidium iodide staining based flow cytometry analysis (reference value: 63.67 %); type: functional; design: scale not given: the % may be the effect or the level left; conditions: dose 10-40 µM
A549 [17] = test: Antiproliferative activity against human A549 cells assessed as inhibition of cell growth incubated for 48 hrs by MTT assay; type: functional, cell-based; conditions: A549, 48 h
HCT-116 [18] = test: Potency index, ratio of olaparib IC50 to test compound IC50 for antiproliferative activity against human HCT-116 cells; type: functional
A549 [19] = test: Antiproliferative activity against human A549 cells assessed as inhibition of cell growth at 20 uM incubated for 48 hrs by MTT assay; type: functional
HCT-116 [20] = test: Inhibition of cell migration in human HCT-116 cells at 10 uM incubated for 24 hrs by wound healing assay (reference value: 32.0 %); type: functional
HCT-116 [21] = test: Induction of apoptosis in human HCT-116 cells assessed as late apoptotic cells at 5 uM incubated for 48 hrs by Annexin-V and PI staining based flow cytometry analysis (reference value: 0.06%); type: functional
HCT-116 [22] = test: Induction of apoptosis in human HCT-116 cells assessed as early apoptotic cells at 20 uM incubated for 48 hrs by Annexin-V and PI staining based flow cytometry analysis (reference value: 1.26%); type: functional
HCT-116 [23] = test: Induction of apoptosis in human HCT-116 cells assessed as necrotic cells at 20 uM incubated for 48 hrs by Annexin-V and PI staining based flow cytometry analysis (reference value: 0.08%); type: functional
HeLa [24] = test: Antiproliferative activity against human HeLa cells assessed as inhibition of cell growth incubated for 48 hrs by MTT assay; type: functional, cell-based
HCT-116 [25] = test: Induction of apoptosis in human HCT-116 cells assessed as late apoptotic cells at 10 uM incubated for 48 hrs by Annexin-V and PI staining based flow cytometry analysis (reference value: 0.06%); type: functional
HCT-116 [26] = test: Inhibition of cell migration in human HCT-116 cells at 20 uM incubated for 24 hrs by wound healing assay (reference value: 32.0 %); type: functional
HCT-116 [27] = test: Induction of apoptosis in human HCT-116 cells assessed as necrotic cells at 10 uM incubated for 48 hrs by Annexin-V and PI staining based flow cytometry analysis (reference value: 0.08%); type: functional
A-375 [28] = test: Antiproliferative activity against human A-375 cells assessed as inhibition of cell growth incubated for 48 hrs by MTT assay; type: functional, cell-based; conditions: A-375, 48 h
A-375 [29] = test: Antiproliferative activity against human A-375 cells assessed as inhibition of cell growth at 20 uM incubated for 48 hrs by MTT assay; type: functional
HCT-116 [30] = test: Induction of apoptosis in human HCT-116 cells assessed as viable cells at 20 uM incubated for 48 hrs by Annexin-V and PI staining based flow cytometry analysis (reference value: 98.50%); type: functional; conditions: read-out: Activity
[31] = molecular target: Poly [ADP-ribose] polymerase 1 (Homo sapiens, UniProt P09874); test: Inhibition of PARP1 (unknown origin) by ELISA
Poly [ADP-ribose] polymerase 1, sequence (P09874 whole entry): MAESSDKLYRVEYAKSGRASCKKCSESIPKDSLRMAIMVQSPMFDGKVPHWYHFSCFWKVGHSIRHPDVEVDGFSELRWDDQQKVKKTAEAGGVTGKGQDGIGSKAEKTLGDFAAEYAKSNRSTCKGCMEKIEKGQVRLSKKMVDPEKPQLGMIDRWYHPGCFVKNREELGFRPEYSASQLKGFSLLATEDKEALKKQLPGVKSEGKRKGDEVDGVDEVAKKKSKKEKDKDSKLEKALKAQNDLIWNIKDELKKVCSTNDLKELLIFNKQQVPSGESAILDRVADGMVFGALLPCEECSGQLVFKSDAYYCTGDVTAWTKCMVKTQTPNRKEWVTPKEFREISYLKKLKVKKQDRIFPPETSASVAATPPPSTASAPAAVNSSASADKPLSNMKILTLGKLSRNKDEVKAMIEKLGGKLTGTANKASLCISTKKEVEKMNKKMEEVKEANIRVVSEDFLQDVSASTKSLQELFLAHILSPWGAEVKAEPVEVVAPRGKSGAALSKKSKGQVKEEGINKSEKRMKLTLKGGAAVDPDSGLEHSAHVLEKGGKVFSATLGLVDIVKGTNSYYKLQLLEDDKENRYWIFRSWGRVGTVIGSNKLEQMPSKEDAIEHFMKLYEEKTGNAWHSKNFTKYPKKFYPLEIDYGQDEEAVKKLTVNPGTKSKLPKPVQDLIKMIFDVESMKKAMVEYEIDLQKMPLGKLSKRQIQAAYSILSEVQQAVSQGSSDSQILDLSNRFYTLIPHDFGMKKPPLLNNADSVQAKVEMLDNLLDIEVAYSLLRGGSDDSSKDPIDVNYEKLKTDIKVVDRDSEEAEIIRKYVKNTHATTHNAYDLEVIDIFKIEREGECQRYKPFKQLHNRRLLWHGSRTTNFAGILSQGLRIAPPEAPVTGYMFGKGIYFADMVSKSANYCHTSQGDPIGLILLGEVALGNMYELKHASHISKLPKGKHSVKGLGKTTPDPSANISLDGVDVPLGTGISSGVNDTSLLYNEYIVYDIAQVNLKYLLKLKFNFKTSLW

HCT-116 [32] = test: Induction of apoptosis in human HCT-116 cells assessed as early apoptotic cells at 5 uM incubated for 48 hrs by Annexin-V and PI staining based flow cytometry analysis (reference value: 1.26%); type: functional

## NC(=O)c1ccccc1OCc1cccc(NC(=O)Nc2cccc(Br)c2)c1
HCT-116 [1]
  viability at 5 µM: 94.6%
HeLa [2]
  inhibition at 20 µM: 71.2%
HCT-116 [3]
  inhibition at 7.5 µM: 100%
HCT-116 [4]
  inhibition at 10 µM: 25.1%
HCT-116 [5]
  inhibition: Dose-Dependent Effect
HCT-116 [6]
  Activity: 0.89%
HCT-116 [7]
  viability at 10 µM: 85%
HCT-116 [8]
  inhibition at 20 µM: 90.7%
L02
  IC50: 71.1 µM
HCT-116 [9]
  Activity: 0.55%
HCT-116 [10]
  Activity: 34.14%
HCT-116 [11]
  inhibition at 20 µM: 19.3%
HCT-116 [12]
  inhibition at 10 µM: 100%
MDA-MB-231 [13]
  inhibition at 20 µM: 78.8%
HCT-116 [14]
  Activity: 11.56%
MDA-MB-231 [15]
  IC50: 14.2 µM
HCT-116 [16]
  Activity: 55.17%
A549 [17]
  IC50: 26.4 µM
HCT-116 [18]
  Ratio IC50: 8.93
A549 [19]
  inhibition at 20 µM: 49.3%
HCT-116 [20]
  inhibition at 10 µM: 23%
HCT-116 [21]
  Activity: 0.77%
HCT-116 [22]
  Activity: 40.51%
HCT-116 [23]
  Activity: 0.15%
HeLa [24]
  IC50: 13.3 µM
HCT-116 [25]
  Activity: 2.44%
HCT-116 [26]
  inhibition at 20 µM: 12%
HCT-116 [27]
  Activity: 0.95%
A-375 [28]
  IC50: 19.5 µM
A-375 [29]
  inhibition at 20 µM: 80.8%
HCT-116 [30]
  viability at 20 µM: 58.5%
[31]
  IC50: 6.06 nM
HCT-116 [32]
  Activity: 4.09%
